Counter-ions that a name gives are not always drawn. Like-named read-outs stand apart in the source and are kept apart here.
Key:
[1] = biological target: T1, 20S Human Erythrocyte Proteasome (HEP) (Homo sapiens, UniProt P20618+P28074); test: Chymotrypsin-like activity of 20S Human Erythrocyte Proteasome (HEP), IC50 determination; assay type: biochemical; settings: assay of Example C, inhibition of HEP
T1 construct: 20S Human Erythrocyte Proteasome (HEP), purchased from Immatics Biotechnologies Inc; purchased Immatics Biotechnologies Inc., Tübingen, Germany; host or cells: human erythrocytes (natural source)
In short: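 20S proteasome at 0.2 μg/mL (about 0.6 nM catalytic sites) in 20 mM Tris with 0.04% SDS, preincubated 15 min at 37° C with inhibitor before Suc-LLVY-AMC (100 μM final). AMC fluorescence read in the linear range; triplicates, IC50 from concentration series.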

[2] = biological target: T2, proteasome in Molt-4 cells (human leukemia) (Homo sapiens, UniProt P20618+P28074); assay type: cell-based
T2 sequence (P28074 60-263): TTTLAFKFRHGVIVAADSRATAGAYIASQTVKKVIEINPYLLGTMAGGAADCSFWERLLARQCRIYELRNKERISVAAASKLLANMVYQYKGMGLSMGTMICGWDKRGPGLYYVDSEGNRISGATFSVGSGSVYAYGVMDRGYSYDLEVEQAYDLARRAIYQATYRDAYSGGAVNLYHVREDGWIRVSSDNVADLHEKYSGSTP
T2 sequence (P20618 29-241): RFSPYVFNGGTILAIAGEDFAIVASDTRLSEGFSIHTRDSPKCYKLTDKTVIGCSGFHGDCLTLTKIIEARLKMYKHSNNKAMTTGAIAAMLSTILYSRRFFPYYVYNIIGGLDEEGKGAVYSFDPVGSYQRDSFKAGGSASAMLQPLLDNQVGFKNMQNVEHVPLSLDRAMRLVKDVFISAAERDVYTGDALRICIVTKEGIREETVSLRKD
In short: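 Intact Molt-4 cells (6×10^6 cells/mL) in HEPES-buffered saline were preincubated with inhibitor 15 min at 37 °C, then given cell-permeable MeOSuc-FLF-AFC at 25 μM final.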

[3] = assay of Example E, inhibition of MOLT4; read-out: MOLT4 (EC50)

Compound	melting point	IC50 [1]	EC50 [2, 3]	EC50 ([2]; read-out: MOLT4 (EC50); assay of Example E, inhibition of MOLT4)
CCCCc1ccc(C(=O)N[C@@H](CNC(=O)c2ccc(-n3cncn3)cc2)C(=O)N[C@@H](CC(C)C)B(O)O)cc1 (as salt: hydrochloride) [E.5.40, Boronic acid, [(1R)-1-[[(2S)-3-(4-(1H-1,2,4-triazol-1-yl)benzoylamide)]-2-[(4-butylbenzoyl)amino]-1H-oxopropyl]amino]-3-methylbutyl] hydrochloride]	192 to 195 °C			
CC(C)C[C@H](NC(=O)[C@@H](NC(=O)[C@H](CC(C)C)NC(=O)OCc1ccccc1)[C@@H](C)O)B1O[C@@H]2C[C@@H]3C[C@@H](C3(C)C)[C@]2(C)O1 [D.8.1, (2S)-2-[(Benzyloxycarbonyl)amino]-4-methylpentanamide, N-[(1S,2R)-1-[[[(1R)-1-[(3aS,4S,6S,7aR)-hexahydro-3a,5,5-trimethyl-4,6-methano-1,3,2-benzodioxaborol-2-yl]-3-methylbutyl]amino]carbonyl]-2-hydroxypropyl]-]	38 to 40 °C			
CC(C)C[C@H](NC(=O)[C@H](CNC(=O)OCc1ccccc1)NC(=O)c1ccc(Oc2ccccc2)cc1)B1O[C@@H]2C[C@@H]3C[C@@H](C3(C)C)[C@]2(C)O1 [D.16.9]	100 to 103 °C			
CCCCc1ccc(C(=O)N[C@@H](CNC(=O)c2cccnc2)C(=O)N[C@@H](CC(C)C)B(O)O)cc1 [E.5.18, Boronic acid, [(1R)-1-[[(2S)-3-(nicotinoylamino)-2-[(4-butylbenzoylamino)]-1-oxopropyl]amino]-3-methylbutyl]]		< 10 nM	< 200 nM	
CCCCc1ccc(C(=O)N[C@@H](CNC(=O)Nc2ccccc2)C(=O)N[C@@H](CC(C)C)B(O)O)cc1 [E.5.19, Boronic acid, [(1R)-1-[[(2S)-3-(3-phenylureido)-2-(4-butylbenzoylamino)-1-oxopropyl]amino]-3-methylbutyl]]		< 10 nM	< 200 nM	
CCCCCCCCCC(=O)N[C@@H](CNC(=O)Nc1ccccc1)C(=O)N[C@@H](CC(C)C)B(O)O [E.5.21, Boronic acid, [(1R)-1-[[(2S)-3-(3-phenylureido)-2-(decanoylamino)-1-oxopropyl]amino]-3-methylbutyl]]		< 10 nM	< 200 nM	
CCCCc1ccc(C(=O)N[C@@H](CNC(=O)c2cc(C)nn2C)C(=O)N[C@@H](CC(C)C)B(O)O)cc1 [E.5.29, Boronic acid, [(1R)-1-[[(2S)-3-(4-(1,3-dimethyl-1H-pyrazole-5-carbonylamino]-2-[(4-butylbenzoyl)amino]-1-oxopropyl]amino]-3-methylbutyl] hydrochloride]		< 10 nM		< 200 nM
CCCCc1ccc(C(=O)N[C@@H](CNC(=O)c2ccc(-n3cncn3)cc2)C(=O)N[C@@H](CC(C)C)B(O)O)cc1 [E.5.40, Boronic acid, [(1R)-1-[[(2S)-3-(4-(1H-1,2,4-triazol-1-yl)benzoylamide)]-2-[(4-butylbenzoyl)amino]-1H-oxopropyl]amino]-3-methylbutyl] hydrochloride]		< 10 nM	< 200 nM	
CCCCc1ccc(C(=O)N[C@H](CNC(=O)c2ccc(C)cc2)C(=O)N[C@@H](CC(C)C)B(O)O)cc1 [E.5.41]		< 100 nM	< 200 nM	
CCCCc1ccc(C(=O)N[C@H](C(=O)N[C@@H](CC(C)C)B2OC3(CCCCC3)C3(CCCCC3)O2)[C@@H](C)O)cc1 [F.2.1, 4-Butylbenzamide, N-[(1S,2R)-1-[[[(1R)-1-[13,15-dioxa-14-bora-dispiro[5.0.5.3]pentadec-14-yl]-3-methylbutyl]amino]carbonyl]-2-hydroxypropyl]-]		< 100 nM	200 to 2000 nM	
Boronic acid, [(1R)-1-[[(2S)-5- [[imino(nitroamino)methyl]amino]-2-[(hexahydro- 2,5-methanopentalene-3a(1H)-carbonyl)amino]-1- oxopentyl]amino]-3-methylbutyl] [E.2.24]		< 10 nM	> 10000 nM	
Boronic acid, [(1R)-1-[[(2S)-5- [[imino(nitroamino)methyl]amino]-2-[[(thiophene- 2-sulfonyl)acetyl]amino]-1-oxopentyl]amino]-3- methylbutyl] [E.2.69]		< 10 nM	> 10000 nM	
